Experimental data published in the NIST ThermoML archive (doi:10.1021/acs.jced.6b00355).
± gives the expanded uncertainty stated by the source.

Experiments:
[1] = Crystal; DTA
[2] = Molar enthalpy of transition or fusion; details: Crystal; DSC

Normal melting temperature [1]	Molar enthalpy of transition or fusion [2]	Compound
48.8 ± 0.7 °C	127 ± 2.5 kJ/mol	CCCCCCCCCCCC(=O)OCC(COC(=O)CCCCCCCCCCC)OC(=O)CCCCCCCCCCC [1,2,3-propanetriyl tridodecanoate]
70.0 ± 0.7 °C	63.3 ± 1.7 kJ/mol	CCCCCCCCCCCCCCCCCC(=O)O [octadecanoic acid]
54.5 ± 0.7 °C	44.9 ± 1.1 kJ/mol	CCCCCCCCCCCCCC(=O)O [tetradecanoic acid]
67.6 ± 0.7 °C	181 ± 5.2 kJ/mol	CCCCCCCCCCCCCCCC(=O)OCC(COC(=O)CCCCCCCCCCCCCCC)OC(=O)CCCCCCCCCCCCCCC [1,2,3-propanetriyl tri(hexadecanoate)]
44.2 ± 0.7 °C	37.6 ± 0.89 kJ/mol	CCCCCCCCCCCC(=O)O [dodecanoic acid]
58.0 ± 0.7 °C	154 ± 6.2 kJ/mol	CCCCCCCCCCCCCC(=O)OCC(COC(=O)CCCCCCCCCCCCC)OC(=O)CCCCCCCCCCCCC [1,2,3-propanetriyl tri(tetradecanoate)]
18.2 ± 0.7 °C	–	CCCCCCCCCCCCCCCC [hexadecane]
73.5 ± 0.7 °C	195 ± 8.6 kJ/mol	CCCCCCCCCCCCCCCCCC(=O)OCC(COC(=O)CCCCCCCCCCCCCCCCC)OC(=O)CCCCCCCCCCCCCCCCC [glycerol trioctadecanoate]
62.8 ± 0.7 °C	55.8 ± 1.5 kJ/mol	CCCCCCCCCCCCCCCC(=O)O [hexadecanoic acid]
